The values that follow come from BindingDB's records for doi:10.1021/acsmedchemlett.7b00157 (Novartis Institutes For Biomedical Research, 2017).

In the first test the target is T1, Prostaglandin D2 receptor 2 (Homo sapiens, UniProt Q9Y5Y4).
T1 sequence (Q9Y5Y4 whole entry): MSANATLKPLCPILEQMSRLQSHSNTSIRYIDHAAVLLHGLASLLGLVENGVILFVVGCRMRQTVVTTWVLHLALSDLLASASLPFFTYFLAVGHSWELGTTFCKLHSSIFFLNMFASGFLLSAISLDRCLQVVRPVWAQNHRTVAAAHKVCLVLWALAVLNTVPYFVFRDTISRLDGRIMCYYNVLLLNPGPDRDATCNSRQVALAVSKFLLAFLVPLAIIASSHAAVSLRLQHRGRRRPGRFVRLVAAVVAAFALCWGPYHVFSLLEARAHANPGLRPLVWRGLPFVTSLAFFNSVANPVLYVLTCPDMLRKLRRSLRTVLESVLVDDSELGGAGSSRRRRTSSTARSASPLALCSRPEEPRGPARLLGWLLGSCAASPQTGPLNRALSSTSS
The test is described as follows: Antagonist activity at DP2 receptor in human whole assessed as inhibition of DK-PGD2-induced eosinophils shape change preincubated for 5 mins followed by DK-PGD2 addition measured after 5 mins by flow cytometry. Background: In flow cytometry, cells or beads pass a laser one at a time.
One may read the IC50 as the concentration at which inhibition is half-maximal. With `CCS(=O)(=O)c1ccc(Cn2c(C)c(CC(=O)O)c3cccnc32)c(Cl)c1`, the IC50 was 7 nM.

Molecular target in another test: not listed separately
The test is described as follows: Antagonist activity at DP2 receptor in human whole assessed as inhibition of DK-PGD2-induced eosinophils shape change preincubated for 5 mins followed by DK-PGD2 addition measured after 5 mins by flow cytometry.
Turning to `Cc1c(CC(=O)O)c2ccccc2n1Cc1ccc(S(C)(=O)=O)cc1`, the IC50 stood at 188 nM. Take `Cc1c(CC(=O)O)c2cccnc2n1Cc1ccc(C(F)(F)F)cc1C(F)(F)F`: the IC50 was found to be 214 nM. On to `Cc1cc(S(C)(=O)=O)ccc1Cn1c(C)c(CC(=O)O)c2cccnc21`, for which the half-inhibitory concentration (IC50) turned out to be 32 nM. `CCS(=O)(=O)c1ccc(Cn2c(C)c(CC(=O)O)c3cccnc32)c(C(F)(F)F)c1`: the 50% inhibitory concentration (IC50) was determined as 4 nM. The same measure, in the same setting: with `Cc1c(CC(=O)O)c2cccnc2n1Cc1ccc(S(C)(=O)=O)c(C(F)(F)F)c1` the figure was 11 nM.

For `Cc1c(CC(=O)O)c2cccnc2n1Cc1ccc(S(C)(=O)=O)cc1Cl`, the concentration for half-maximal inhibition (IC50) came out at 47 nM.
